Laboratory results: PubChem BioAssay (NCI)
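Method: 48-hour compound exposure of cells in 96-well plates, five concentrations, linear interpolation of endpoints. GI50 is the concentration that inhibits growth by half. TGI denotes the concentration required for complete inhibition of growth.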

Columns and labels:
Test in all cases: growth of human tumour cells (NCI), 48 h
[1] = tested on: SF-268 CNS
[2] = tested on: SN12C renal
[3] = tested on: EKVX NSCLC
[4] = tested on: A549 NSCLC
[5] = tested on: OVCAR-5 ovarian
[6] = tested on: TK-10 renal
[7] = tested on: SNB-19 CNS
[8] = tested on: HCT-116 colon
[9] = tested on: HL-60(TB) leukemia
[10] = tested on: M14 melanoma
[11] = tested on: HOP-62 NSCLC
[12] = tested on: HT29 colon
[13] = tested on: OVCAR-8 ovarian
[14] = tested on: PC-3 prostate
[15] = tested on: SR leukemia
[16] = tested on: NCI/ADR-RES ovarian
[17] = tested on: MCF7 breast
[18] = tested on: SK-MEL-5 melanoma

Row | SMILES | TGI [1] [µM] | TGI [2] [µM] | TGI [3] [µM] | TGI [4] [µM] | TGI [5] [µM] | TGI [6] [µM] | TGI [7] [µM] | TGI [8] [µM] | TGI [9] [µM] | TGI [10] [µM] | TGI [11] [µM] | TGI [12] [µM] | TGI [13] [µM] | TGI [14] [µM] | TGI [15] [µM] | TGI [16] [µM] | TGI [17] [µM] | TGI [18] [µM] | GI50 [1] [µM] | GI50 [8] [µM]
1 | CCNc1nc2c(=O)n(C)c(=O)n(C)c2s1 | > 100 | > 100 | > 100 | > 100 | > 100 | > 100 | > 100 | > 100 | > 100 | > 100 | > 100 | > 100 | > 100 | – | – | – | – | – | – | –
2 | O=C(O)CSc1nc2ccccc2[nH]1 | > 100 | > 100 | > 100 | > 100 | > 100 | > 100 | > 100 | > 100 | – | > 100 | > 100 | > 100 | > 100 | > 100 | > 100 | > 100 | – | – | – | –
3 | CC(C)(Cl)C(Br)CCC(=CCBr)CBr (mixture of isomers) | 4.99 | 8.39 | 62 | 29.9 | 26.4 | 12.5 | 13.1 | 3.66 | 2.42 | 4.25 | 11.7 | 4.65 | 9.25 | 18 | – | > 24.5 | 8.42 | 7.77 | – | –
4 | CC(=O)c1cc2sc3ccccc3c2[nH]1 | > 100 | > 100 | – | > 100 | > 100 | > 100 | > 100 | > 100 | – | > 100 | > 100 | > 100 | > 100 | > 100 | – | > 100 | > 100 | > 100 | – | –
5 | N=C(N)SCCSC(=N)N | > 100 | > 100 | > 100 | > 100 | > 100 | > 100 | > 100 | > 100 | – | > 100 | > 100 | > 100 | > 100 | > 100 | – | > 100 | > 100 | > 100 | – | –
6 | Cc1ccc(NCCO)cc1 | > 100 | > 100 | > 100 | > 100 | > 100 | > 100 | > 100 | > 100 | > 100 | > 100 | > 100 | > 100 | > 100 | – | > 100 | – | – | > 100 | – | –
7 | N#Cc1nc(/C=C/c2cccs2)oc1N | > 100 | > 100 | > 100 | > 100 | > 100 | > 100 | > 100 | > 100 | > 100 | > 100 | > 100 | > 100 | > 100 | > 100 | 74 | – | > 100 | > 100 | – | –
8 | Nc1c2ccccc2nc2nccnc12 | > 100 | > 100 | > 100 | > 100 | > 100 | > 100 | > 100 | > 100 | > 100 | > 100 | > 100 | > 100 | > 100 | – | > 100 | – | – | > 100 | – | –
9 | COc1ccc(/C=C2\C(=O)Nc3ccccc32)cc1OC | > 100 | > 100 | > 100 | > 100 | > 100 | > 100 | > 100 | > 100 | > 100 | > 100 | > 100 | > 100 | > 100 | – | – | – | – | > 100 | – | –
10 | COc1ccc(-c2nc(SCC(=O)N/N=C/c3ccc([N+](=O)[O-])cc3)[nH]c2-c2ccc(OC)cc2)cc1 | > 100 | 46.6 | 98.8 | > 100 | 60.7 | > 100 | > 100 | 37.3 | 24.7 | 32.3 | > 100 | 26.9 | > 100 | > 100 | – | 79.7 | 20.6 | 19.9 | – | –
11 | COc1ccc(-c2cc(=O)c3cc4c(cc3[nH]2)OCO4)c(OC)c1 | > 100 | > 100 | > 100 | > 100 | – | > 100 | > 100 | > 100 | 46.3 | > 100 | > 100 | > 100 | > 100 | – | 74.2 | – | – | 80.1 | 62.6 | 40.7
12 | COc1cc(/C=C2\N=C(c3ccccc3)N(c3ccc4c(c3)Sc3cc(N5C(=O)/C(=C/c6cc(OC)c(OC)c(OC)c6)N=C5c5ccccc5)ccc3N4)C2=O)cc(OC)c1OC | 37.5 | 51 | 54.6 | > 100 | 39.6 | 30.9 | 39.8 | > 100 | 65.3 | 80.8 | 60.2 | > 100 | 37.9 | 38.3 | – | > 100 | 37.1 | 30.1 | – | –
13 | CC(Cc1ccc(O)cn1)(NC(=O)c1ccccc1)C(=O)O (stereo not given) | > 100 | – | > 100 | > 100 | > 100 | > 100 | > 100 | > 100 | > 100 | > 100 | > 100 | > 100 | > 100 | > 100 | > 100 | > 100 | – | > 100 | – | –
14 | Brc1ccc(N=C/C=C(\Nc2ccc(Br)cc2)C23CC4CC(CC(C4)C2)C3)cc1 | 37.9 | > 64.2 | 56.2 | > 100 | > 67.8 | 28.6 | > 100 | 23.8 | 23.3 | 71 | 43.6 | > 61.6 | > 81.3 | 41 | – | > 84.9 | 28.4 | 26.6 | – | –
15 | O=C1NC(=S)NC1C(Cc1ccccc1)c1ccco1 (stereo not given) | > 100 | > 100 | > 100 | > 100 | > 100 | > 100 | > 100 | > 100 | > 100 | > 100 | – | > 100 | > 100 | – | > 100 | > 100 | > 100 | > 100 | – | –
16 | CCOC(=O)C1C(c2ccccc2)C2(C#N)C(=N)OC1(C)C2(C#N)C#N (stereo not given) | 94 | – | > 100 | > 100 | 72.6 | 69.7 | > 100 | 35.7 | 55.7 | > 100 | – | 29.4 | 80.4 | > 100 | – | 85.9 | > 100 | 25.1 | – | –
17 | ClCc1nnc2n1-c1ccc(Cl)cc1SC2 | 9.55 | 29.6 | > 51.9 | 20.3 | 24.6 | – | 25.7 | 12.7 | 3.51 | – | 17.4 | 10.2 | > 39.5 | – | – | 4.76 | 12.2 | 9.49 | – | –
18 | O=C(NC/C=C/CO)c1ccccc1 | > 100 | > 100 | > 100 | > 100 | > 100 | – | > 100 | > 100 | > 100 | – | > 100 | > 100 | > 100 | – | – | > 100 | > 100 | > 100 | – | –
19 | CCCCCCCCOP(=O)(O)OP(=O)(O)OCC1OC(n2ccc(N)nc2=O)C(O)C1O (stereo not given) | > 100 | > 100 | > 100 | > 100 | > 100 | > 100 | > 100 | > 100 | > 100 | > 100 | > 100 | > 100 | > 100 | > 100 | – | > 100 | > 100 | > 100 | – | –
20 | O=C1CCN(CCC(F)(F)C(F)(F)C(F)(F)C(F)(F)F)C(=S)N1 | > 100 | > 100 | > 100 | > 100 | > 100 | > 100 | > 100 | > 100 | > 100 | > 100 | > 100 | > 100 | > 100 | – | > 100 | – | – | > 100 | – | –
21 | COc1ccc2cc(NC(=O)Nn3cnnc3)ccc2c1 | > 100 | – | > 100 | > 100 | > 100 | > 100 | > 100 | > 100 | > 100 | > 100 | > 100 | > 100 | > 100 | > 100 | > 100 | – | > 100 | > 100 | – | –
22 | COc1cc(C2SC(N)=Nc3c2c(C)nn3C(=O)Cc2ccccc2)cc(OC)c1OC (stereo not given) | > 100 | > 100 | > 100 | > 100 | – | > 100 | > 100 | > 100 | > 100 | > 100 | > 100 | > 100 | > 100 | > 100 | > 100 | – | > 100 | > 100 | – | –
23 | CC(C)C1=CC23CCC4C(C)(C(=O)O)CCCC4(C)C2CC1C1C(=O)N(c2ccc(N4C(=O)C5C6CC7C8(C)CCCC(C)(C(=O)O)C8CCC7(C=C6C(C)C)C5C4=O)cc2)C(=O)C13 (stereo not given) | 22.3 | 17.5 | 18.7 | 43.3 | 22 | 29.9 | 18.8 | 11.8 | 17.2 | 15.8 | 19.3 | 5.22 | 16.5 | 14.1 | 15.9 | – | 13.5 | 19.2 | – | –
24 | CC12CCC3C(CCC4(O)C=CCCC34C=O)C1(O)CC(O)C2c1ccc(=O)oc1 (stereo not given) | 0.0754 | 0.199 | 0.087 | 0.0646 | 0.638 | – | 0.527 | 0.22 | – | – | 0.0954 | 1.71 | 0.193 | – | – | 0.282 | 0.344 | 0.0887 | – | –
25 | CC1OC(n2ccc3ccc([N+](=O)[O-])cc32)C(O)C(O)C1O (stereo not given) | > 100 | > 100 | > 100 | > 100 | > 100 | > 100 | > 100 | > 100 | > 100 | > 100 | > 100 | > 100 | > 100 | – | > 100 | – | – | > 100 | – | –
26 | N#CC(NNC(=O)Cc1ccccc1)c1ccc(O)cc1 (stereo not given) | > 100 | > 100 | – | > 100 | > 100 | > 100 | – | > 100 | > 100 | > 100 | > 100 | > 100 | > 100 | – | > 100 | – | – | > 100 | – | –
27 | Nc1ccc(N=Nc2ccc(-c3ccc(N=Nc4c(S(=O)(=O)O)cc5cc(S(=O)(=O)O)c(N=Nc6ccc([N+](=O)[O-])cc6)c(N)c5c4O)cc3)cc2)c2cc(S(=O)(=O)O)ccc12 | > 100 | > 100 | > 100 | > 100 | > 100 | > 100 | > 100 | > 100 | > 100 | > 100 | > 100 | > 100 | > 100 | – | > 100 | – | – | > 100 | – | –
28 | Cc1cc2c(=O)c3ccc(Cl)cc3[nH]c2c(C(=O)O)c1C | > 100 | > 100 | > 100 | > 100 | > 100 | > 100 | > 100 | > 100 | – | > 100 | > 100 | > 100 | > 100 | – | – | – | – | > 100 | – | –
29 | CN1CCC2(CC1)C(=O)N(NC(N)=O)C(=O)C2c1ccccc1 (stereo not given) | > 100 | > 100 | > 100 | > 100 | > 100 | > 100 | > 100 | > 100 | > 100 | > 100 | > 100 | > 100 | > 100 | > 100 | – | > 100 | – | > 100 | – | –
